# In publication PMC4909242, “Cyclization strategies of meditopes: affinity and diffraction studies of meditope–Fab complexes” (Acta Crystallographica. Section F, Structural Biology …, 2016):
# Test system: cetuximab IgG
# Test: Surface plasmon resonance binding kinetics of meditope variants to cetuximab
# Conditions: SPR; for k a / k d: Biacore T100, cetuximab IgG amine-coupled to CM5 chip (5000 RU), HBS-EP+ pH 7.4, flow 30 µl min^−1; for k a: error <38% for values of variants marked ‡; for k d: off-rate independent of peptide concentration
Compound,k a [M^−1 s^−1 × 10^4],k d [s⁻¹],increase in affinity compared with the original meditope (ratio of K d to the original disulfide meditope) [fold],decrease in the on-rate compared with the long meditope (ratio of k a) [fold]
CC(C)C[C@@H]1NC(=O)[C@H](CCCNC(=N)N)NC(=O)[C@H](CCCNC(=N)N)NC(=O)[C@H]([C@@H](C)O)NC(=O)[C@H](CO)NC(=O)[C@H](CC(C)C)NC(=O)[C@H](CC(=O)O)NC(=O)[C@H](Cc2ccccc2)NC(=O)[C@H](CCC(N)=O)NC(=O)CCNC(=O)CCNC(=O)[C@H](CCCCN)NC1=O,5.8,0.091,,
CC(C)C[C@@H]1NC(=O)[C@H](CCCNC(=N)N)NC(=O)[C@H](CCCNC(=N)N)NC(=O)[C@H]([C@@H](C)O)NC(=O)[C@H](CO)NC(=O)[C@H](CC(C)C)NC(=O)[C@H](CC(=O)O)NC(=O)[C@H](Cc2ccccc2)NC(=O)[C@H](CCC(N)=O)NC(=O)[C@@H](N)CSSC[C@@H](C(N)=O)NC(=O)[C@H](CCCCN)NC1=O,12,0.018,,
CC(C)C[C@@H]1NC(=O)[C@H](CCCNC(=N)N)NC(=O)[C@H](CCCNC(=N)N)NC(=O)[C@H]([C@@H](C)O)NC(=O)[C@H](CO)NC(=O)[C@H](CC(C)C)NC(=O)[C@H](CC(=O)O)NC(=O)[C@H](Cc2ccccc2)NC(=O)[C@H](CCC(N)=O)NC(=O)CCCCCCNC(=O)[C@H](CCCCN)NC1=O,3.8,0.064,,
CC(=O)N[C@H]1CSSC[C@@H](C(N)=O)NC(=O)[C@H](CCCCN)NC(=O)[C@H](CC(C)C)NC(=O)[C@H](CCCNC(=N)N)NC(=O)[C@H](CCCNC(=N)N)NC(=O)[C@H]([C@@H](C)O)NC(=O)[C@H](CO)NC(=O)[C@H](CC(C)C)NC(=O)[C@H](CC(=O)O)NC(=O)[C@H](Cc2ccccc2)NC(=O)[C@H](CCC(N)=O)NC1=O,15,0.011,~2.3,
CC(=O)N[C@H]1CSSC[C@@H](C(=O)NCC(=O)NCC(=O)N[C@@H](CO)C(=O)N[C@@H](CCCCN)C(=O)O)NC(=O)[C@H](CCCNC(=N)N)NC(=O)[C@H](CC(C)C)NC(=O)[C@H](CCCNC(=N)N)NC(=O)[C@H](CCCNC(=N)N)NC(=O)[C@H]([C@@H](C)O)NC(=O)[C@H](CO)NC(=O)[C@H](CC(C)C)NC(=O)[C@H](CC(=O)O)NC(=O)[C@H](Cc2ccccc2)NC(=O)[C@H](CCC(N)=O)NC1=O,,0.010,,
CC(C)C[C@@H]1NC(=O)[C@H](CCCNC(=N)N)NC(=O)[C@H](CCCNC(=N)N)NC(=O)[C@H]([C@@H](C)O)NC(=O)[C@H](CO)NC(=O)[C@H](CC(C)C)NC(=O)[C@H](CC(=O)O)NC(=O)[C@H](Cc2ccccc2)NC(=O)[C@H](CCC(N)=O)NC(=O)CCSSC[C@@H](C(=O)O)NC(=O)[C@H](CCCCN)NC1=O,2.1,0.012,,~4.4
